{"source": "patent US20020052361A1", "about": "“Pharmaceutical compositions and method for the treatment of hypertension” (priority 1999, published 2002)", "type_in_all_cases": "in vivo, Sprague-Dawley rats", "key": {"chronically hypoxic rats [1]": {"system": "chronically hypoxic rats", "test": "Haemodynamic tests: pulmonary artery pressure in rats kept 14 days under normoxic or hypoxic conditions", "settings": "for PAP (pulmonary artery pressure): rats, 40 mg/kg/day for 14 days via i.p. osmotic mini-pump, mean ± SD", "protocol": "(§1) The test substance employed was (3S,2R′)-3-[1-(2′-(carboxy-4′-phenylbutyl)cyclopentane-1-carbonylamino]-2,3,4,5-tetrahydro-2-oxo-1H-1-benzazepine-1-acetic acid, which is representative of the substances of formula I which can be used in the invention. The dose of the substance administered was 40 mg/kg per day (sufficient to suppress the pressure feedback on big endothelin).\n(§2) The test animals used were Sprague-Dawley rats (260 to 310 g; n=6 to 10 per test group). In order to produce pulmonary hypertension, the animals were exposed to […] hypoxic conditions in a pressure chamber. For comparison, one control group was kept under normal air and another control group under hypoxic conditions.\n(§3) The animals were treated with the active substance or a vehicle by means of osmotic mini-pumps. The osmotic mini-pumps had been implanted intraperitoneally in the animals before they were kept in a pressure chamber 24 h later for a period of two weeks. There the animals were kept at normal pressure either under hypoxic conditions (10% O2) or in normal air. After two weeks the animals were prepared for the haemodynamic tests and the measurements were carried out.\nThe animals were anaesthetised, then a ready-made cannula was inserted into the pulmonary artery in a conventional manner via the right jugular vein, atrium and ventricle. A catheter was inserted into the left jugular vein in order to allow intravenous administration of active substances. The left carotid artery was also fitted with a cannula for the purpose of measuring systemic blood pressure. Once the animals were conscious, pulmonary artery pressure (PAP) was recorded. The rats were then exposed to hypoxic conditions (10% O2) again for 10 minutes in a mini-chamber and the increase in pulmonary artery pressure was measured and also recorded. The effects of the test substance on PAP under normotoxic and hypoxic conditions are presented in Table 1 in comparison with the control tests. The given data are means±standard deviations and were statistically analysed by means of ANOVA."}, "chronically hypoxic rats [2]": {"system": "chronically hypoxic rats", "test": "Measurement of the antihypertrophic effect: right and left ventricular weights", "settings": "for Rt/LtHWt (ratio of right to left ventricular weight) / RtHWt (right ventricular weight) / RtHWt/BW (ratio of right ventricular weight to body weight): rats, 40 mg/kg/day for 14 days, mean ± SD", "protocol": "as §1, §2, §3\nAfter completion of the haemodynamic tests, the animals were sacrificed and their hearts were dissected out. The weights of the right and left ventricles were determined and calculated in relation to bodyweight. The effects of the test substance on the heart weights under normotoxic and hypoxic conditions are presented in Table 1 in comparison with the control tests. The given data are means±standard deviations and were statistically analysed by means of ANOVA."}, "chronically hypoxic rats [3]": {"system": "chronically hypoxic rats", "test": "Effect on pulmonary artery remodelling: muscularisation of distal pulmonary vessels (histology, van Gieson staining)", "protocol": "as §1, §2, §3\nAfter the rats had been sacrificed, the lungs as well as the hearts were isolated. The lungs underwent histological examination, i.e. the degree of muscularisation of the distal pulmonary vessels was determined after “van Gieson” staining, by microscopy at 400× magnification. The effects of the test substance on pulmonary artery remodelling (i.e. on muscularisation of the distal pulmonary vessels) during two weeks' hypoxia are presented in Table 2 in comparison with the hypoxic control tests. The given data are means±standard deviations and were statistically analysed by means of ANOVA."}, "chronically hypoxic rats [4]": {"system": "chronically hypoxic rats", "test": "Haemodynamic tests: systemic blood pressure via carotid artery cannula", "settings": "40 mg/kg per day, result in words", "protocol": "as §1, §2\nThe animals were treated with the active substance or a vehicle by means of osmotic mini-pumps. […]\nThe animals were anaesthetised, then a ready-made cannula was inserted into the pulmonary artery in a conventional manner via the right jugular vein, atrium and ventricle. […] Once the animals were conscious, pulmonary artery pressure (PAP) was recorded. The rats were then exposed to hypoxic conditions (10% O2) again for 10 minutes in a mini-chamber and the increase in pulmonary artery pressure was measured and also recorded. […] The given data are means±standard deviations and were statistically analysed by means of ANOVA."}, "[5]": {"settings": "hypoxic rats, 40 mg/kg per day, result in words"}, "[6]": {"settings": "rats, 14 days' hypoxia, 40 mg/kg/day for 14 days, mean ± SD, n = 8"}}, "data": [{"smiles": "O=C(O)CN1C(=O)[C@@H](NC(=O)C2(C[C@@H](CCc3ccccc3)C(=O)O)CCCC2)CCc2ccccc21", "note": "[Test substance]", "values": [{"measurement": "Effect on pulmonary artery pressure (PAP) in comparison with hypoxic control animals", "setting": "chronically hypoxic rats [1]; [5]", "result": "statistically significant decrease"}, {"measurement": "PAP (pulmonary artery pressure)", "setting": "chronically hypoxic rats [1]; 14-day hypoxia (10% O2), n=9", "result": "33.2 ± 1.2", "unit": "mmHg"}, {"measurement": "PAP (pulmonary artery pressure)", "setting": "chronically hypoxic rats [1]; 14-day normoxia, n = 8", "result": "22.2 ± 1", "unit": "mmHg"}, {"measurement": "Effect on ratio between right and left ventricular weights", "setting": "chronically hypoxic rats [2]; [5]", "result": "tendency towards a reduction"}, {"measurement": "Effect on ratio between right heart weight and bodyweight", "setting": "chronically hypoxic rats [2]; [5]", "result": "tendency towards a reduction"}, {"measurement": "Effect on right heart weight (antihypertrophic effect) in comparison with hypoxic control tests", "setting": "chronically hypoxic rats [2]; [5]", "result": "statistically significant reduction"}, {"measurement": "Rt/LtHWt (ratio of right to left ventricular weight)", "setting": "chronically hypoxic rats [2]; 14-day hypoxia (10% O2), n=9", "result": "0.40 ± 0.02", "unit": "mg/mg"}, {"measurement": "RtHWt (right ventricular weight)", "setting": "chronically hypoxic rats [2]; 14-day hypoxia (10% O2), n=9", "result": "242 ± 6.4", "unit": "mg"}, {"measurement": "RtHWt/BW (ratio of right ventricular weight to body weight)", "setting": "chronically hypoxic rats [2]; 14-day hypoxia (10% O2), n=9", "result": "0.87 ± 0.03", "unit": "mg/g"}, {"measurement": "Rt/LtHWt (ratio of right to left ventricular weight)", "setting": "chronically hypoxic rats [2]; 14-day normoxia, n = 8", "result": "0.25 ± 0.01", "unit": "mg/mg"}, {"measurement": "RtHWt (right ventricular weight)", "setting": "chronically hypoxic rats [2]; 14-day normoxia, n = 8", "result": "171 ± 10", "unit": "mg"}, {"measurement": "RtHWt/BW (ratio of right ventricular weight to body weight)", "setting": "chronically hypoxic rats [2]; 14-day normoxia, n = 8", "result": "0.56 ± 0.03", "unit": "mg/g"}, {"measurement": "Effect on muscularisation of the distal pulmonary vessels", "setting": "chronically hypoxic rats [3]; [5]", "result": "statistically significantly reduced"}, {"measurement": "Muscularised distal pulmonary vessels", "setting": "chronically hypoxic rats [3]; [6]", "result": "52 ± 5", "unit": "%"}, {"measurement": "Non-muscularised distal pulmonary vessels", "setting": "chronically hypoxic rats [3]; [6]", "result": "9 ± 3", "unit": "%"}, {"measurement": "Partly muscularised distal pulmonary vessels", "setting": "chronically hypoxic rats [3]; [6]", "result": "39 ± 4", "unit": "%"}, {"measurement": "Effect on normal systemic blood pressure (hypotensive properties)", "setting": "chronically hypoxic rats [4]", "result": "unaffected"}]}]}
